Measurements taken from paper PMC8448819, “The Arabidopsis MIK2 receptor elicits immunity by sensing a conserved signature from phytocytokines and microbes” (Nature Communications, 2021).

Legend:
[1] = tested on: MPK3, MPK4 and MPK6 phosphorylation, mik2-1 seedlings; assay: MAPK assay (α-pERK1/2 immunoblot), mik2-1; assay type: in vivo, Arabidopsis thaliana; set-up: dose or concentration left out as unconfirmed; settings: mik2-1, α-pERK1/2 immunoblot
[2] = tested on: mik2 mutant seedlings; assay: ROS assay (luminol), mik2 mutants; assay type: in vivo, Arabidopsis thaliana
Method: ROS burst was determined by a luminol-based assay. […] Then, ddH2O was replaced by 200 µL of reaction solution containing 50 µM of luminol, and 10 µg/mL of horseradish peroxidase (Sigma-Aldrich) supplemented with or without 100 nM or 1 μM peptide. Luminescence was measured immediately after adding the solution with a luminometer (Glomax 20/20n, Promega) with a one-second interval for 15 min. The total values of ROS production were indicated as means of the relative light units (RLUs).

[3] = tested on: Arabidopsis WT (Col-0) seedlings; settings: RLK7 activation by PIP1; cited from earlier work
Source text: (§1) Plant plasma membrane-resident RKs perceive diverse exogenous and endogenous signals via the extracellular domain and activate intracellular responses through the cytoplasmic kinase domain[1]–[3]. The chimeric receptors with the swapped extracellular and intracellular domains between different RKs have been used to study the specificity of signal perception and signaling activation[48]–[52]. The extracellular domains of RKs determine the ligand-binding specificity[50],[51],[53]. The intracellular kinase domains of different RKs also trigger specific responses. For example, the chimeric rec ...

[4] = tested on: Arabidopsis WT seedlings; settings: RLK7 activation by PIP1; cited from earlier work
Source text: as §1

[5] = tested on: RLK7^ECD-MIK2^TK/rlk7 and RLK7/rlk7 transgenic seedlings; assay: Root growth assay, rlk7, RLK7/rlk7 and RLK7^ECD-MIK2^TK/rlk7 seedlings; assay type: in vivo, Arabidopsis thaliana
Source text: The BAK1 (AT4G33430), SERK4 (AT2G13790), BIK1 (AT2G39660), and MIK2 (AT4G08850) coding sequences (CDSs) were amplified by PCR from Col-0 cDNA using the primers containing BamHI at the 5′ end and StuI at the 3′ end. The PCR products were digested by BamHI and StuI, followed by ligation into the pHBT-FLAG or pHBT-HA vector to generate pHBT-35S::BAK1-FLAG, pHBT-35S::SERK4-FLAG, pHBT-35S::BIK1-HA, pHBT-35S::MIK2-HA, and pHBT-35S::MIK2-GFP constructs[24],[41],[62]. MIK2^ECD (residues 1–707) and BAK1^ECD (residues 1–220) were amplified by PCR from Col-0 cDNA and cloned into pFastBac-1 vector with a C-terminal 6× HIS tag[25],[62]. The fusion protein vectors carrying MIK2^ECD or BAK1^ECD were used for insect cell expression. To obtain the binary vector pCAMBIA1300-35S::RLK7, a 2907-bp RLK7 CDS was PCR-amplified from WT cDNA using gene-specific primers with KpnI and SalI at the 5′ and 3′ ends, respectively, followed by KpnI and SalI digestion and ligation into the pCAMBIA1300 vector. To generate the binary vector pCAMBIA1300 carrying the RLK7^ECD-MIK2^TK chimeric receptor gene, an 1824-bp fragment encoding RLK7^ECD was PCR-amplified from WT cDNA using a gene-specific forward primer with KpnI at the 5′ end and a gene-specific reverse primer with 8-bp overlapping sequence from the 5′ end of MIK2^TK, and a 1011-bp fragment encoding MIK2^TK using a gene-specific forward primer with 8-bp overlapping sequence from the 3′ end of RLK7 ^ECD and a gene-specific reverse primer with SalI at the 5′ end. RLK7^ECD was fused with MIK2^TK and inserted into the pUC19 vector using in-fusion recombinant enzymes (Clontech). […]
Cold stratified seeds were surface-sterilized with 70% (v/v) ethanol for 5 min and were sown on ½MS plates with or without peptides at indicated concentrations. Ten-day-old seedlings grown on plates vertically in a growth chamber were photographed, and the root lengths of seedlings were measured using Image J (http://rsb.info.nih.gov/ij/).

[6] = tested on: gene expression, RLK7^ECD-MIK2^TK/rlk7 seedlings; assay: RNA-Seq, RLK7^ECD-MIK2^TK/rlk7; assay type: in vivo, Arabidopsis thaliana; settings: for gene expression fold change: RLK7ECD-MIK2TK/rlk7, 1 μM PIP1 vs Ctrl, 1 h
Method: Seedlings were then treated with or without 1 μM PIP1 or SCOOP12 for 1 or 6 h and harvested for RNA isolation. Total RNAs (5 μg) from two biological replicates were pooled for cDNA library construction. cDNA library preparation and sequencing were carried out on an Illumina HiSeq 4000 platform with 150-nucleotide pair-end reads in LC-BIO (Hangzhou, China). Total reads were mapped to the Arabidopsis genome (TAIR10; www.arabidopsis.org) with Hisat, and the read counts for every gene were generated with StringTie. The expression levels of genes were calculated by quantifying the cDNA fragments per kilobase of transcript per million fragments mapped (FPKM). Differentially expressed genes (DEGs) between different treatments were defined by fold change of read counts at 1 and 6 h compared to that at 0 h (differential expression analysis using edgeR, fold change ≥ 2 with p-value ≤ 0.01). DEGs were listed in Supplementary Data 2.

[7] = RLK7^ECD-MIK2^TK/rlk7, 1 µM PIP1

Row | Substance | MAPK activation in mik2 [1] | ROS production, total luminescence (Fig. 3f) ([2]; mik2-1, repeat 1) | ROS production, total luminescence (Fig. 3f) ([2]; mik2-1, repeat 2) | ROS production, total luminescence (Fig. 3f) ([2]; mik2-1, repeat 3) | ROS production, total luminescence (Fig. 3f) ([2]; mik2-2, repeat 1) | ROS production, total luminescence (Fig. 3f) ([2]; mik2-2, repeat 2) | ROS production, total luminescence (Fig. 3f) ([2]; mik2-2, repeat 3) | ROS production in mik2 ([2]; mik2 mutants, 100 nM SCOOPs or 1 µM FocSCOOPL) | root growth [3] | ROS production [4] | root growth retardation ([5]; RLK7/rlk7 and RLK7^ECD-MIK2^TK/rlk7, 1 µM PIP1) | brown roots and darkened root-hypocotyl junctions ([5]; RLK7^ECD-MIK2^TK/rlk7) | root growth retardation vs RLK7/rlk7 [5, 7] | small peptide genes induced [6, 7] | expression of SCOOP genes ([6]; RLK7^ECD-MIK2^TK/rlk7, 1 µM PIP1, 0, 1 and 6 h) | SCOOP, STMP and SCOOP/STMP-like genes induced ([6]; RLK7^ECD-MIK2^TK/rlk7, 1 µM PIP1, among 51 induced small peptide genes) | gene expression fold change ([6]; gene AT1G53080) | gene expression fold change ([6]; gene AT5G52400) | gene expression fold change ([6]; gene AT5G52700)
1 | PNGDIFTGPSGSGHGGGR [SCOOP10B, synthesized SCOOP peptide corresponding to the SxS motif] | abolished in mik2 mutants | 113000 | 107000 | 114000 | 119000 | 155000 | 128000 | abolished in mik2 mutants |  |  |  |  |  |  |  |  |  |  | 
2 | RLASGP(OH)SPRGRGH [PIP1, secreted peptide, ligand of RLK7] |  |  |  |  |  |  |  |  | moderately inhibits root growth | weakly induces ROS production | restored the sensitivity to PIP1 treatment exhibiting root growth retardation | brown roots and darkened root-hypocotyl junctions | more substantial root growth retardation | 51 genes | induces the expression of SCOOP genes | 18 genes | 194.45 | 19374.61 | 11109.32
